Reference: ChEMBL document CHEMBL1146436, “Bioactive alkaloids from Illigera luzonensis” (1997)
Calls of active or inactive are those of the source. No cut-off for these calls is given here.

Key:
[1] = Antiplatelet activity against ADP-induced rabbit platelet aggregation assessed as platelet aggregation at 100 ug/ml preincubated for 3 mins by turbidimetric method relative to control; assay type: functional, Oryctolagus cuniculus
Aorta [2] = test: Effect on resting tension in rat thoracic aorta at 100 ug/mL pretreated for 15 mins; assay type: functional, tissue-based
Aorta [3] = test: Vasorelaxant activity against 3 uM norepinephrine -induced tonic contractions in rat thoracic aorta assessed as muscle contractions at 100 ug/mL pretreated for 15 mins before norepinephrine administration relative to control; assay type: functional; set-up: scale not given: the % may be the effect or the level left
[4] = Antiplatelet activity against arachidonic acid-induced rabbit platelet aggregation assessed as platelet aggregation at 20 ug/ml preincubated for 3 mins by turbidimetric method relative to control; assay type: functional, Oryctolagus cuniculus
[5] = Antiplatelet activity against arachidonic acid-induced rabbit platelet aggregation assessed as platelet aggregation at 5 ug/ml preincubated for 3 mins by turbidimetric method relative to control; assay type: functional, Oryctolagus cuniculus
[6] = Antiplatelet activity against arachidonic acid-induced rabbit platelet aggregation assessed as platelet aggregation at 100 ug/ml preincubated for 3 mins by turbidimetric method relative to control; assay type: functional, Oryctolagus cuniculus
[7] = Antiplatelet activity against collagen-induced rabbit platelet aggregation assessed as platelet aggregation at 100 ug/ml preincubated for 3 mins by turbidimetric method relative to control; assay type: functional, Oryctolagus cuniculus
Aorta [8] = test: Vasorelaxant activity against 3 uM norepinephrine -induced phasic contractions in rat thoracic aorta assessed as muscle contractions at 100 ug/mL pretreated for 15 mins before norepinephrine administration relative to control; assay type: functional; set-up: scale not given: the % may be the effect or the level left
[9] = Antiplatelet activity against arachidonic acid-induced rabbit platelet aggregation assessed as platelet aggregation at 50 ug/ml preincubated for 3 mins by turbidimetric method relative to control; assay type: functional, Oryctolagus cuniculus
[10] = Antiplatelet activity against PAF-induced rabbit platelet aggregation assessed as platelet aggregation at 100 ug/ml preincubated for 3 mins by turbidimetric method relative to control; assay type: functional, Oryctolagus cuniculus
Aorta [11] = test: Vasorelaxant activity against 80 mM potassium-induced contractions in rat thoracic aorta assessed as muscle contractions at 100 ug/mL pretreated for 15 mins before potassium administration relative to control; assay type: functional; set-up: scale not given: the % may be the effect or the level left
[12] = Antiplatelet activity against arachidonic acid-induced rabbit platelet aggregation assessed as platelet aggregation at 10 ug/ml preincubated for 3 mins by turbidimetric method relative to control; assay type: functional, Oryctolagus cuniculus
Aorta [13] = test: Vasorelaxant activity against 3 uM norepinephrine -induced tonic contractions in rat thoracic aorta assessed as muscle contractions at 1 uM pretreated for 15 mins before norepinephrine administration relative to control; assay type: functional; set-up: scale not given: the % may be the effect or the level left
Aorta [14] = test: Vasorelaxant activity against 3 uM norepinephrine -induced phasic contractions in rat thoracic aorta assessed as muscle contractions at 1 uM pretreated for 15 mins before norepinephrine administration relative to control; assay type: functional; set-up: scale not given: the % may be the effect or the level left
Aorta [15] = test: Vasorelaxant activity against 80 mM potassium-induced contractions in rat thoracic aorta assessed as muscle contractions at 1 uM pretreated for 15 mins before potassium administration relative to control; assay type: functional; set-up: scale not given: the % may be the effect or the level left
[16] = Antiplatelet activity against arachidonic acid-induced rabbit platelet aggregation assessed as platelet aggregation at 2 ug/ml preincubated for 3 mins by turbidimetric method relative to control; assay type: functional, Oryctolagus cuniculus
[17] = Antiplatelet activity against arachidonic acid-induced rabbit platelet aggregation assessed as platelet aggregation at 1 ug/ml preincubated for 3 mins by turbidimetric method relative to control; assay type: functional, Oryctolagus cuniculus
[18] = Antiplatelet activity against arachidonic acid-induced rabbit platelet aggregation assessed as platelet aggregation at 25 ug/ml preincubated for 3 mins by turbidimetric method relative to control; assay type: functional, Oryctolagus cuniculus
[19] = Antiplatelet activity against collagen-induced rabbit platelet aggregation assessed as platelet aggregation at 25 ug/ml preincubated for 3 mins by turbidimetric method relative to control; assay type: functional, Oryctolagus cuniculus
[20] = Antiplatelet activity against PAF-induced rabbit platelet aggregation assessed as platelet aggregation at 25 ug/ml preincubated for 3 mins by turbidimetric method relative to control; assay type: functional, Oryctolagus cuniculus
[21] = Antiplatelet activity against ADP-induced rabbit platelet aggregation assessed as platelet aggregation at 25 ug/ml preincubated for 3 mins by turbidimetric method relative to control; assay type: functional, Oryctolagus cuniculus

SMILES	Activity [1] [%]	Activity [4] [%]	Activity [5] [%]	Activity [6] [%]	Activity [7] [%]	Activity [10] [%]	Activity [12] [%]	further results
COc1cc2c(cc1O)C[C@@H]1NCCc3cc4c(c-2c31)OCO4 [ACTINODAPHNINE]	0	42.7	80.3	0	0	0	60.5	Activity (Aorta [2]): inactive; Activity (Aorta [3]): 15.5%; Activity (Aorta [8]): 40.6%; Activity [9]: 0%; Activity (Aorta [11]): 41.9%
COc1cc2nc(N3CCN(C(=O)c4ccco4)CC3)nc(N)c2cc1OC [PRAZOSIN]								Activity (Aorta [13]): 0%; Activity (Aorta [14]): 0%
COc1c(O)ccc2c1-c1c(OC)c(O)cc3c1[C@H](C2)NCC3 [HERNOVINE]	87.2			47	0	64.1		
COc1ccc2c(c1OC)-c1c3c(cc4c1[C@H](C2)N(C)CC4)OCO3	47.9	50.4	83.4	0	0	75.1	72.5	Activity [9]: 0%
COc1ccc2c(c1O)-c1c3c(cc4c1[C@H](C2)N(C)CC4)OCO3 [(S)-BULBOCAPNINE]	86.8			89.3	83.2	86.6		
COC(=O)C1=C(C)NC(C)=C(C(=O)OC)C1c1ccccc1[N+](=O)[O-] [NIFEDIPINE]								Activity (Aorta [15]): 0%
COc1cc2c(cc1O)C[C@H]1c3c(cc4c(c3-2)OCO4)CCN1C [CASSYTHICINE]	0	0	51.4	0	0	68.1	16.2	Activity [16]: 69.1%; Activity (Aorta [3]): 98.9%; Activity (Aorta [8]): 225%; Activity (Aorta [11]): 112.9%; Activity [17]: 82.5%
CC(=O)Oc1ccccc1C(=O)O [ASPIRIN]				0				Activity [18]: 0%; Activity [19]: 87.8%; Activity [20]: 90.4%; Activity [21]: 77.9%
COc1cc2c(cc1OC)-c1c3c(cc4ccnc(c14)C2=O)OCO3 [DICENTRINONE]								Activity (Aorta [2]): inactive; Activity (Aorta [3]): 64%; Activity (Aorta [8]): 89.7%; Activity (Aorta [11]): 111.1%
COc1cc2c(cc1OC)-c1c3c(cc4c1[C@H](C2)N(C)CC4)OCO3 [DICENTRINE]	4	0	77.7	0	3.2	7.6	55.1	Activity [16]: 83.4%
COc1ccc2c(c1O)-c1c3c(cc4c1[C@H](C2)NCC4)OCO3 [LAUNOBINE]	84.2			11.8	29.9	70.7		
O=C1c2ccccc2-c2c3c(cc4ccnc1c24)OCO3 [LIRIODENINE]								Activity [18]: 40.5%; Activity [19]: 5.3%; Activity [20]: 84.1%; Activity [21]: 5.4%
